# Data from patent EP3366310A1, “L-ARABINOSE AND USES THEREOF AGAINST VIBRIO GENUS BACTERIA” (priority 2017, dated 2018).
# What was measured:
# V. cholerae N16961 [1] = experiment: Growth curves (optical density at 600 nm over time); assay type: cell-based, Vibrio cholerae; details: for effect on V. cholerae growth or morphology: M9-MM, 0.2% of carbon source (Table 1 and Figure 5)
# Experimental: Cells were grown at 30°C in M9 minimal medium supplemented with 0.2% fructose and 1 µg/ml thiamine (M9-MM) and M9-MM + 0.1% casamino acids (M9-MM + CAA) in a 96-well microtiter plate and the optical density at 600 nm followed over time in a Tecan plate reader. The growth curves plotted are the average of three replicates; the standard deviation is represented for each time point.
# (§1) During experiments in which inventors used an arabinose-inducible promoter to express fluorescently tagged proteins in V. cholerae, they occasionally observed the presence of spherical cells. […]. To better understand this phenotype, inventors grew V. cholerae cells to exponential phase in different liquid media and added increasing concentrations of L-Ara. After a few hours, they inspected the cells morphology at the microscope. […] To see the effect of L-Ara on cell proliferation and growth, overnight cultures were diluted into fresh media containing increasing amounts of the inducer. The OD of these cultures was monitored over time (Figure 2). […].
# V. cholerae N16961 [2] = experiment: Microscopy inspection of cell morphology (spherical cells) after exposure to carbon sources; assay type: cell-based, Vibrio cholerae
# Experimental: Cells were grown to exponential phase and spread on a 1% (w/v) agar pad (ultrapure agarose, Invitrogen) for analysis. For snapshot analyses, cells images were acquired using a DM6000-B (Leica) microscope. For time-lapse analyses the agarose pad was made using M9-MM and images were acquired using an Evolve 512 EMCCD camera (Roper Scientific) attached to an Axio Observe spinning disk (Zeiss).
# as §1
# [3] = system: EPV50 (derived from El Tor isolate N16961); experiment: microbe, parasite or virus in culture; assay type: cell-based; details: Vibrio cholerae
# Experimental: An EPV50 (derived from El Tor isolate N16961) overnight culture was diluted 200 times in M9-MM, followed by 2 hours of growth at 30°C before 0.2% L-Ara was added and growth continued for other 5 hours. Cells were checked for complete transition to spherical morphology at the microscope. Serial dilutions of t0 (before L-Ara addition) and t1 (after L-Ara treatment) samples were plated on Luria Bertani (LB) agarose plates and the number of colonies used to calculate the CFU at t0 and t1. The ratio CFU t1 / CFU t0 is used to calculate the percentage of cells able to survive L-Ara treatment and revert to proliferating cells.
# EPV50 = experiment: Muropeptide analysis (peptidoglycan isolation and UPLC); assay type: cell-based, Vibrio cholerae
# Experimental: EPV50 overnight cultures were diluted 200 times in M9-MM and grown at 30°C. 100 ml were centrifuged after 7 hours of growth and 1L of culture to which 0.2% L-Ara was added after 2 hours was harvested after further 5 hours of incubation. Cells were checked for complete transition to spherical morphology at the microscope. Previously described methods were followed for muropeptide isolation and ultra-performance liquid chromatography (UPLC) analysis [Desmarais et al. and Möll et al.]. After boiling for 2 hours cell pellets with SDS (sodium dodecyl sulfate) the lysates were left stirring over night at room temperature. Cell wall material was pelleted, washed with MQ water to remove the SDS, and digested with pronase E to remove Braun's lipoprotein. Purified peptidoglycan was re-suspended in MQ water and treated overnight with muramidase at 37°C. Soluble muropeptides were reduced with sodium borohydride and the pH then adjusted to 3.5 with phosphoric acid. Samples were injected in an ultra-performance liquid chromatography (UPLC) system to obtain the muropeptide profiles. UPLC separation was performed on a Waters UPLC system equipped with an ACQUITY UPLC BEH C18 Column, 130 Å, 1.7 µm, 2.1 mm × 150 mm (Waters) and a dual wavelength absorbance detector using a linear gradient from buffer A (phosphate buffer 50 mM, pH 4.35) to buffer B (phosphate buffer 50 mM, pH 4.95, methanol 15% (vol/vol)) in a 22-min run with a 0.25 mL/min flow. Elution of muropeptides was detected at 204 nm. Identity of the peaks was assigned by comparison of the retention times and profiles to other chromatograms in which mass spectrometry data has been collected. The relative amounts of the muropeptides and the percentage of cross-linkage were calculated as described by Glauner et al. To calculate the amount of peptidoglycan per cell, the total area of the muropeptides was normalized to the OD of the culture. All values are the means of three independent experiments.
# [4] = M9-MM supplemented with casamino acids (CAA)
# [5] = muropeptide group, M9-MM, 0.2% L-Ara for 5 hours
smiles,measurement,setting,value
"O=C[C@@H](O)[C@H](O)[C@H](O)CO [D-Arabinose, reference compound]",effect on V. cholerae growth or morphology,V. cholerae N16961 [1],"none of them, including D-Arabinose, affected V. cholerae growth or morphology"
O=C[C@H](O)[C@@H](O)[C@@H](O)CO [L-Arabinose],L-Ara concentration at which all cells exhibited the spherical phenotype,V. cholerae N16961 [2]; [4],0.5%
same,L-Ara concentration at which spherical cells started to appear,V. cholerae N16961 [2]; [4],0.2%
same,cell morphology,"V. cholerae N16961 [2]; M9-MM, 0.02% L-Ara, a few hours",normal rod-shape
same,cell shape,"V. cholerae N16961 [2]; M9-MM, 0.1% L-Ara (Figure 1A)",spherical shape with a heterogeneous diameter size
same,L-Ara concentration at which cells became completely round,"V. cholerae N16961 [2]; M9-MM, a few hours",0.1%
same,"L-Ara concentration that triggers a toxic response (stop of proliferation, loss of rod-shape)","V. cholerae N16961 [2]; Vibrio cholerae, summary statement",0.02%
same,effect on cell growth (OD),"V. cholerae N16961 [1]; M9-MM and M9-MM+CAA, increasing amounts of L-Ara",arrested V. cholerae cell growth
same,effect on V. cholerae growth or morphology,V. cholerae N16961 [1],deleterious effects on cell growth or cell morphology
same,killing at 0.2 %,"[3]; 5 h, read-out: cell death",~50%
same,viability at 0.2 %,"[3]; M9-MM, 0.2% L-Ara for 5 hours, ratio CFU t1 / CFU t0, read-out: percentage of survival to L-Ara treatment",~50%
same,Anhydro-muropeptides (%),EPV50; [5],21.9 (±3.7) %
same,DAP-DAP cross-linked muropeptides (%),EPV50; [5],7.5 (±0.9) %
same,Dimers (%),EPV50; [5],47.2 (±3.1) %
same,Trimers (%),EPV50; [5],12.6 (±4.8) %
same,Monomers (%),"EPV50; muropeptide group, M9-MM, 0.2% L-Ara for 5 hours, mean of three experiments (±SD)",40.2 (±3.2) %
same,Average glycan chain length,"EPV50; peptidoglycan feature, calculated from the number of anhydro-muropeptides, M9-MM, 0.2% L-Ara for 5 hours",7.5 (±1.1)
same,Total cross-linkage (%),"EPV50; peptidoglycan feature, M9-MM, 0.2% L-Ara for 5 hours",47.2 (±5.0) %
same,"amount of peptidoglycan per cell, times lower than in rod-shaped (non-treated) cells","EPV50; spherical L-Ara-treated bacteria, 0.2% L-Ara",around 10 times
same,"glycan chains, times shorter than in non-treated cells","EPV50; spherical L-Ara-treated cells, 0.2% L-Ara",around 2 times
